What was measured:
Type in all cases: in vivo
[1] = tested on: Phytophthora infestans; assay: whole plant or invertebrate; conditions: tomato seedlings; for Test F disease control rating: 250 ppm, 100 = 100% disease control, 0 = no control
[2] = tested on: Botrytis cinerea; assay: Test E: tomato Botrytis control on tomato seedlings; conditions: for Test E disease control rating: 250 ppm, 100 = 100% disease control, 0 = no control
[3] = tested on: Zymoseptoria tritici; assay: Test C: wheat leaf blotch control on wheat seedlings; conditions: for Test C disease control rating: 250 ppm, wheat seedlings, 100 = 100% disease control, 0 = no control
[4] = tested on: Erysiphe graminis f. sp. tritici; assay: Test G: wheat powdery mildew control on wheat seedlings; conditions: for Test G disease control rating: 250 ppm, 100 = 100% disease control, 0 = no control
[5] = tested on: Plasmopara viticola; assay: Test D: grape downy mildew control on grape seedlings; conditions: for Test D disease control rating: 250 ppm, 100 = 100% disease control, 0 = no control
[6] = tested on: Phakopsora pachyrhizi; assay: Test A: Asian soybean rust control on soybean seedlings; conditions: for Test A disease control rating: 250 ppm, soybean seedlings, 100 = 100% disease control, 0 = no control
[7] = tested on: Puccinia recondita f. sp. tritici; assay: Test B: wheat leaf rust control on wheat seedlings; conditions: for Test B disease control rating: 250 ppm, wheat seedlings, 100 = 100% disease control, 0 = no control
[8] = rate 250 ppm, relative to the controls

| Structure (SMILES) | Test F disease control rating (100 = 100% disease control, 0 = no disease control) [1, 8] | Test E disease control rating (100 = 100% disease control, 0 = no disease control) [2, 8] | Test C disease control rating (100 = 100% disease control, 0 = no disease control) [3, 8] | Test G disease control rating (100 = 100% disease control, 0 = no disease control) [4, 8] | Test D disease control rating (100 = 100% disease control, 0 = no disease control) [5, 8] | Test A disease control rating (100 = 100% disease control, 0 = no disease control) [6, 8] | Test B disease control rating (100 = 100% disease control, 0 = no disease control) [7, 8] | Test F disease control rating [1] | Test E disease control rating [2] | Test C disease control rating [3] | Test G disease control rating [4] | Test D disease control rating [5] | Test A disease control rating [6] | Test B disease control rating [7] |
| --- | --- | --- | --- | --- | --- | --- | --- | --- | --- | --- | --- | --- | --- | --- |
| COc1ccnc(C(=O)N(C)C(C)C(=O)OC(C)c2ccc(C3CCCCC3)cc2)c1O (mixture of isomers) [Compound 193] | 0% | 0% | 3% | 0% | 74% | 87% | 74% | – | – | – | – | – | – | – |
| COc1ccnc(C(=O)NC(C)C(=O)OC(C)c2ccc(C3CCCCC3)cc2)c1OC(=O)C(C)C (mixture of isomers) [Compound 154] | – | – | – | – | – | – | – | 0% | 0% | 85% | 0% | 48% | 100% | 98% |
| COc1ccnc(C(=O)NC(C)C(=O)OC(C)c2ccc(F)cc2Oc2ccc(F)cc2)c1O (mixture of isomers) [Compound 82] | – | – | – | – | – | – | – | 0% | 0% | 79% | 0% | 82% | 95% | 55% |
| COc1ccnc(C(=O)N[C@@H](C)C(=O)OC(C)c2ccccc2Cc2ccc(F)cc2)c1OC(C)=O (single isomer, unassigned) [Compound 11] | – | – | – | – | – | – | – | 0% | 0% | 13% | 0% | 30% | 0% | 19% |
| COc1ccnc(C(=O)NC(C)C(=O)OC(C)c2ccc([N+](=O)[O-])cc2)c1OC(C)=O (mixture of isomers) [Compound 20] | – | – | – | – | – | – | – | 0% | 0% | 64% | 0% | 4% | 0% | 68% |
| CCOC(=O)c1ccn(-c2ccc(C(C)OC(=O)C(C)NC(=O)c3nccc(OC)c3O)cc2)n1 (mixture of isomers) [Compound 49] | – | – | – | – | – | – | – | 0% | 0% | 0% | 0% | 17% | 97% | 41% |
| COc1ccnc(C(=O)NC(C)C(=O)OC(C)c2ncc(C(F)(F)F)cc2Cl)c1O (mixture of isomers) [Compound 166] | – | – | – | – | – | – | – | 0% | 0% | 0% | 0% | 15% | 97% | 68% |
| COc1ccnc(C(=O)N[C@@H](C)C(=O)OC(C)c2ccc(F)cc2Cc2ccccc2)c1OC(C)=O (single isomer, unassigned) [Compound 38] | – | – | – | – | – | – | – | 0% | 0% | 53% | 0% | 44% | 0% | 41% |
| COc1ccnc(C(=O)N[C@@H](C)C(=O)OC(C)c2ccccc2Cc2ccc(F)cc2)c1O (single isomer, unassigned) [Compound 39] | – | – | – | – | – | – | – | 0% | 57% | 87% | 0% | 16% | 100% | 100% |
| COc1ccnc(C(=O)N[C@@H](C)C(=O)OC(C)c2ccccc2-c2ccccc2)c1O (single isomer, unassigned) [Compound 2] | – | – | – | – | – | – | – | 0% | 0% | 73% | 0% | 63% | 99% | 55% |
| COc1ccc(COc2c(OC)ccnc2C(=O)NC(C)C(=O)OC(C)c2ccc(C3CCCCC3)cc2)cc1 (mixture of isomers) [Compound 155] | – | – | – | – | – | – | – | 0% | 0% | 98% | 0% | 5% | 100% | 99% |
| COc1ccnc(C(=O)NC(C)C(=O)OC(C)C2CCc3ccccc3O2)c1O (mixture of isomers) [Compound 164] | – | – | – | – | – | – | – | 0% | 0% | 99% | 0% | 0% | 100% | 99% |
| CCC(OC(=O)[C@H](C)NC(=O)c1nccc(OC)c1OCOC(C)=O)c1ccc(C2CCCCC2)cc1 (single isomer, unassigned) [Compound 134] | – | – | – | – | – | – | – | 0% | 0% | 64% | 0% | 33% | 97% | 74% |
